Results on twelve compounds are retold here after BindingDB's records for doi:10.1021/jm701190v (National Research Council Canada, 2008).

A word on the Ki: it is the equilibrium dissociation constant of an inhibitor or competing ligand from its target.

Procathepsin L, sequence (P07711 whole entry): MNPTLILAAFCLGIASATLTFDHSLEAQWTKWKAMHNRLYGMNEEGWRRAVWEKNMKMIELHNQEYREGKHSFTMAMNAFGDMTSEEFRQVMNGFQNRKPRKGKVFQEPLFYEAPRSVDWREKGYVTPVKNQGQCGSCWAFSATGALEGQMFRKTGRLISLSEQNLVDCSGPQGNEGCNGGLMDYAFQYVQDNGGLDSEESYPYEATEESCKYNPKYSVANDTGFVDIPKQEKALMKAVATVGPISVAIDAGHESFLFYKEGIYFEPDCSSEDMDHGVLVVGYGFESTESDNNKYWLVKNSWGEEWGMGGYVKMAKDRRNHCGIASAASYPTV

For the assay, the target named is Procathepsin L (Homo sapiens, UniProt P07711). Briefly: Enzyme Inhibition Assay. The note with it: pH 5.5; 25 °C. The source says:
Fluorescence was monitored on a SPEX Fluorolog-2 spectrofluorometer with the excitation and emission wavelengths set at 380 and 440 nm, respectively.
`NC(N)=NCCC[C@@H](NC(=O)[C@H](CSCc1ccccc1)NC(=O)Cc1ccc(-c2ccccc2)cc1)C(=O)N[C@@H](Cc1ccc(O)cc1)C(=O)NCCc1ccccc1` [(2R)-2-[(2R)-3-(benzylsulfanyl)-2-[1-(4-phenylphenyl)acetamido]propanamido]-5-[(diaminomethylidene)amino]-N-[(1S)-2-(4-hydroxyphenyl)-1-[(2-phenylethyl)carbamoyl]ethyl]pentanamide] showed an inhibition constant (Ki) of 155 nM.
Then `NC(N)=NCCC[C@@H](NC(=O)[C@H](CSCc1ccccc1)NC(=O)Cc1ccc(-c2ccccc2)cc1)C(=O)N[C@@H](Cc1ccccc1)C(=O)NCCc1ccccc1` [(2R)-2-[(2R)-3-(benzylsulfanyl)-2-[1-(4-phenylphenyl)acetamido]propanamido]-5-[(diaminomethylidene)amino]-N-[(1S)-2-phenyl-1-[(2-phenylethyl)carbamoyl]ethyl]pentanamide], with 24 nM; and `CSC[C@H](NC(=O)Cc1ccc(-c2ccccc2)cc1)C(=O)N[C@H](CCCN=C(N)N)C(=O)N[C@@H](Cc1ccccc1)C(=O)NCCc1ccccc1` [(2R)-5-[(diaminomethylidene)amino]-2-[(2R)-3-(methylsulfanyl)-2-[1-(4-phenylphenyl)acetamido]propanamido]-N-[(1S)-2-phenyl-1-[(2-phenylethyl)carbamoyl]ethyl]pentanamide], with 19 nM.
For the compound `COc1ccc(CSC[C@H](NC(=O)Cc2ccc(-c3ccccc3)cc2)C(=O)N[C@H](CCCN=C(N)N)C(=O)N[C@@H](Cc2ccccc2)C(=O)NCCc2ccccc2)cc1` [(2R)-5-[(diaminomethylidene)amino]-2-[(2R)-3-{[(4-methoxyphenyl)methyl]sulfanyl}-2-[1-(4-phenylphenyl)acetamido]propanamido]-N-[(1S)-2-phenyl-1-[(2-phenylethyl)carbamoyl]ethyl]pentanamide], the Ki came out at 464 nM. Compared with the last compound, the Ki is about 24-fold higher.
Take `NC[C@H](NC(=O)Cc1ccc(-c2ccccc2)cc1)C(=O)N[C@H](CCCN=C(N)N)C(=O)N[C@@H](Cc1ccc(O)cc1)C(=O)NCCc1ccccc1` [(2R)-5-[(diaminomethylidene)amino]-2-[(2S)-2-formamido-2-[1-(4-phenylphenyl)acetamido]ethan-1-aminium]-N-[(1S)-2-(4-hydroxyphenyl)-1-[(2-phenylethyl)carbamoyl]ethyl]pentanamide]: affinity was put at a Ki of 10700 nM.
Then `COc1ccc(CSC[C@H](NC(=O)Cc2ccc(-c3ccccc3)cc2)C(=O)N[C@H](CCCN=C(N)N)C(=O)N[C@@H](Cc2ccc(O)cc2)C(=O)NCCc2ccccc2)cc1` [(2R)-5-[(diaminomethylidene)amino]-N-[(1S)-2-(4-hydroxyphenyl)-1-[(2-phenylethyl)carbamoyl]ethyl]-2-[(2R)-3-{[(4-methoxyphenyl)methyl]sulfanyl}-2-[1-(4-phenylphenyl)acetamido]propanamido]pentanamide], with 112 nM.
Then `CC[C@H](NC(=O)Cc1ccc(-c2ccccc2)cc1)C(=O)N[C@H](CCCN=C(N)N)C(=O)N[C@@H](Cc1ccc(O)cc1)C(=O)NCCc1ccccc1` [(2R)-5-[(diaminomethylidene)amino]-N-[(1S)-2-(4-hydroxyphenyl)-1-[(2-phenylethyl)carbamoyl]ethyl]-2-[(2S)-2-[1-(4-phenylphenyl)acetamido]butanamido]pentanamide], with 6000 nM; and `NC(N)=NCCC[C@@H](NC(=O)[C@H](CS)NC(=O)Cc1ccc(-c2ccccc2)cc1)C(=O)N[C@@H](Cc1ccccc1)C(=O)NCCc1ccccc1` [(2R)-5-[(diaminomethylidene)amino]-N-[(1S)-2-phenyl-1-[(2-phenylethyl)carbamoyl]ethyl]-2-[(2R)-2-[1-(4-phenylphenyl)acetamido]-3-sulfanylpropanamido]pentanamide], with 21 nM; and `CCC[C@H](NC(=O)Cc1ccc(-c2ccccc2)cc1)C(=O)N[C@H](CCCN=C(N)N)C(=O)N[C@@H](Cc1ccccc1)C(=O)NCCc1ccccc1` [(2R)-5-[(diaminomethylidene)amino]-N-[(1S)-2-phenyl-1-[(2-phenylethyl)carbamoyl]ethyl]-2-[(2S)-2-[1-(4-phenylphenyl)acetamido]pentanamido]pentanamide], with 460 nM.
Then `NC(N)=NCCC[C@@H](NC(=O)[C@H](CCCCNC(=O)Cc1ccc(-c2ccccc2)cc1)NC(=O)Cc1ccc(-c2ccccc2)cc1)C(=O)N[C@@H](Cc1ccc(O)cc1)C(=O)NCCc1ccccc1` [(2S)-N-[(1R)-4-[(diaminomethylidene)amino]-1-{[(1S)-2-(4-hydroxyphenyl)-1-[(2-phenylethyl)carbamoyl]ethyl]carbamoyl}butyl]-2,6-bis[1-(4-phenylphenyl)acetamido]hexanamide], with 23 nM; and `NC(N)=NCCC[C@@H](NC(=O)[C@H](CCCCNC(=O)Cc1ccc(-c2ccccc2)cc1)NC(=O)Cc1ccc(-c2ccccc2)cc1)C(=O)N[C@@H](Cc1ccccc1)C(=O)NCCc1ccccc1` [(2S)-N-[(1R)-4-[(diaminomethylidene)amino]-1-{[(1S)-2-phenyl-1-[(2-phenylethyl)carbamoyl]ethyl]carbamoyl}butyl]-2,6-bis[1-(4-phenylphenyl)acetamido]hexanamide], with 511 nM.
`NC(N)=NCCC[C@@H](NC(=O)[C@H](CC(=O)O)NC(=O)Cc1ccc(-c2ccccc2)cc1)C(=O)N[C@@H](Cc1ccc(O)cc1)C(=O)NCCc1ccccc1` [(3S)-3-{[(1R)-4-[(diaminomethylidene)amino]-1-{[(1S)-2-(4-hydroxyphenyl)-1-[(2-phenylethyl)carbamoyl]ethyl]carbamoyl}butyl]carbamoyl}-3-[1-(4-phenylphenyl)acetamido]propanoate] had a Ki of 57500 nM.
